In patent publication US20230058623A1, “NOVEL HETEROARYL-TRIAZOLE COMPOUNDS AS PESTICIDES” (Bayer Aktiengesellschaft, priority 2019, published 2023):

Legend:
Format in all cases: in vivo
[1] = system: Rhipicephalus (Boophilus) microplus larvae (strain Parkhurst, resistant against synthetic pyrethroids); test: Rhipicephalus (Boophilus) microplus in-vitro contact test, larval cattle tick; settings: after 48 hours, read-out: activity (efficacy: larvae dead or moribund); for pest or weed control at 1 µg/cm2, 100 g/ha: application rate 1 μg/cm^2 (=100 g/ha); for pest or weed control at 5 µg/cm2, 500 g/ha: application rate 5 μg/cm^2 (=500 g/ha)
Procedure, shortened: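 Acetone solutions were coated onto glass tube walls, giving 5 μg/cm^2 at 900 ppm. Once dry, 20–50 pyrethroid-resistant Parkhurst larvae were added per tube and held 48 h at 27 °C and 85% RH. Efficacy was scored by negative geotaxis as the percentage of dead or moribund larvae.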

[2] = system: adult engorged female ticks (Rhipicephalus microplus); test: Rhipicephalus (Boophilus) microplus injection test; settings: 168 h, application rate 4 μg/tick, egg deposition after 7 days, read-out: activity (efficacy: infertile eggs)
Procedure, shortened: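 Five adult engorged female ticks injected into the abdomen with 1 μL compound solution in DMSO, then held in a climate chamber. Fertile egg deposition assessed after 7 days, unclear eggs kept until hatching (about 42 days); efficacy 100% = all eggs infertile, 0% = all fertile.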

[3] = system: adult cat fleas (Ctenocephalides felis); test: Ctenocephalides felis in-vitro contact test, adult cat flea; settings: application rate 5 μg/cm^2 (=500 g/ha), after 48 hours, read-out: activity (efficacy: fleas dead or moribund)
Procedure, shortened: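 Acetone solutions of compound were coated onto inner walls of glass tubes (900 ppm giving 5 μg/cm^2) and dried; 5-10 adult C. felis were then held 48 h at room temperature. Efficacy = % fleas dead or moribund, judged by inability to escape a 45-50° C heating plate within 5 min.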

[4] = system: adult unfed cat fleas (Ctenocephalides felis); test: Ctenocephalides felis oral test; settings: 48 h, read-out: activity (mortality)
Experimental: Ctenocephalides felis—Oral Test
Solvent: dimethyl sulfoxide
To produce a suitable preparation of active compound, 10 mg of active compound are dissolved in 0.5 mL solvent, and the concentrate is diluted with citrated cattle blood to the desired concentration.
Approximately 20 adult unfed cat fleas (Ctenocephalides felis) are placed in a flea chamber whose top and bottom is covered with gauze. A chamber whose bottom is sealed with parafilm, is filled with the blood-compound solution and placed on top of the flea chamber, so that the fleas can suck the blood. The blood chamber is heated to 37° C. whereas the flea chamber is kept at room temperature.
After 2 days mortality in % is determined. 100% means all the fleas have been killed; 0% means none of the fleas have been killed.

[5] = system: adult brown dog ticks (Rhipicephalus sanguineus); test: Rhipicephalus sanguineus in-vitro contact test, adult brown dog ticks; settings: application rate 5 μg/cm^2 (=500 g/ha), after 48 hours, read-out: activity (efficacy: ticks dead or moribund)
Procedure, shortened: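 Acetone solution (900 ppm giving 5 μg/cm²) coated on inner walls of glass tubes; after drying, 5-10 adult ticks added and held at room temperature 48 h. Ticks then placed on 45-50 °C plate ≤5 min; those unable to climb away scored dead/moribund, efficacy as % affected.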

[6] = system: larvae of the banded cucumber beetle (Diabrotica balteata); test: Diabrotica balteata spray test; settings: 168 h, application rate 100 g/ha (=32 μg/well), after 7 days, wheat seeds, read-out: activity (efficacy: seedlings grown)
Procedure, shortened: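 Wheat seeds germinated 1 day on agar were sprayed with compound diluted in water with 1000 ppm emulsifier, then infested with 10-20 Diabrotica balteata larvae. Efficacy in % scored after 7 days: 100% = seedlings grown as untreated, uninfected control; 0% = no seedlings grown.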

[7] = system: larvae of the southern green stink bug (Nezara viridula); test: Nezara viridula spray test; settings: 96 h, after 4 days, barley plants; for mortality at 100 g/ha: application rate 100 g/ha
Procedure, shortened: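 Barley plants sprayed with the active compound in emulsifier-containing water, then infested with stink bug larvae. Mortality scored in % after 4 days, with 100% meaning all insects killed.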

[8] = system: fall armyworm larvae (Spodoptera frugiperda); test: Spodoptera frugiperda spray test; settings: 168 h, application rate 100 g/ha, after 7 days, maize leaf sections
Procedure, shortened: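 Maize leaf sections sprayed with compound diluted in water with 1000 ppm emulsifier, then infested with larvae once dry. Mortality (%) scored after 7 days; 100% = all caterpillars killed.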

[9] = system: green peach aphid (Myzus persicae); test: Myzus persicae oral test; settings: 120 h, read-out: activity (mortality)
Procedure, shortened: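 Acetone stock (1 pbw compound/100 pbw solvent) diluted in water; mixed with sugar-supplemented IPL41 medium; parafilm-sealed; mixed aphid population sucks through film; mortality % read at 5 d.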

[10] = system: green peach aphid (Myzus persicae); test: Myzus persicae spray test; settings: foliar, 120 h, application rate 100 g/ha, after 5 days, Chinese cabbage leaf disks, read-out: activity (mortality)
Procedure, shortened: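 Chinese cabbage leaf disks infested with all aphid instars were sprayed with compound diluted in water containing emulsifier (1000 ppm). Mortality (%) was scored after 5 days, 100% meaning all aphids killed.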

[11] = system: adult mosquitoes Aedes aegypti strain MONHEIM; test: Aedes aegypti test (AEDSAE surface treatment & contact assay); settings: surface concentration 20 mg/m^2, exposure 30 minutes, 24 hours after contact, read-out: efficacy (mortality)
Experimental: Aedes aegypti Test (AEDSAE Surface Treatment & Contact Assay)
Solvent: Aceton+2000 ppm rapeseed oil methyl ester (RME)
In order to produce a sufficient, active ingredient containing solution it is necessary to solve the test compound in the solvent-mix (acetone at 2 mg/ml/RME 2000 ppm). This solution is pipetted onto a glazed tile and after evaporation of the acetone, adult mosquitoes of the species Aedes aegypti strain MONHEIM are placed onto the dried surface. The exposure time is 30 minutes.
Mortality in percent (%) is determined 24 hours after contact of the insects to the treated surface. 100% mortality means that all tested insects are dead, whereas 0% means that no insect died.

[12] = system: brown planthopper (Nilaparvata lugens); test: Nilaparvata lugens spray test; settings: 96 h, application rate 500 g/ha, after 4 days, rice plants
Experimental: Nilaparvata lugens—Spray Test
To produce a suitable preparation of active compound, 1 part by weight of active compound is mixed with the stated amount of solvents and is diluted with water, containing an emulsifier concentration of 1000 ppm, to the desired concentration. Further test concentrations are prepared by dilution with emulsifier containing water.
Rice plants (Oryza sativa) are sprayed with a preparation of the active ingredient of the desired concentration and the plants are infested with the brown planthopper (Nilaparvata lugens).
After 4 days mortality in % is determined. 100% means all planthoppers have been killed and 0% means none of the planthoppers have been killed.

Row | Structure (SMILES) | pest or weed control at 1 µg/cm2, 100 g/ha [1] [%] | pest or weed control at 5 µg/cm2, 500 g/ha [1] [%] | pest or weed control at 0.004 mg [2] [%] | pest or weed control at 5 µg/cm2 [3] [%] | mortality at 100 ppm [4] [%] | pest or weed control at 5 µg/cm2, 500 g/ha [5] [%] | pest or weed control at 32 µg/disc, 100 g/ha [6] [%] | mortality at 100 g/ha [7] [%] | mortality at 100 g/ha [8] [%] | mortality at 4 ppm [9] [%] | mortality at 100 g/ha [10] [%] | mortality at 20 mg/m2 [11] [%] | mortality at 500 g/ha [12] [%] | mortality at 500 g/ha ([7]; application rate 500 g/ha, read-out: activity (mortality)) [%]
1 | Cc1nc([C@H](C)NC(=O)c2cc(C(F)(F)F)cc(C(F)(F)F)c2)n(-c2ccc(C(=O)N3C[C@H](C)O[C@@H](C)C3)cn2)n1 [Example I-95] | 100 | 100 | 100 | 100 | 100 | 100 | 100 | 100 | 100 |  |  |  |  | 
2 | C[C@H](NC(=O)c1cc(Cl)cc(C(F)(F)F)c1)c1ncnn1-c1ccc(C(=O)N2CCOC[C@H]2C)cn1 [Example I-33] | 100 | 100 | 100 |  | 100 | 100 |  | 90 | 100 |  |  |  |  | 
3 | Cc1nc([C@H](C)NC(=O)c2cc(Cl)cc(C(F)(F)F)c2)n(-c2ccc(C(=O)N3CCC3)cn2)n1 [Example I-23] | 90 | 90 | 100 | 100 | 90 | 100 |  |  | 100 | 100 | 90 | 80 to 100 |  | 
4 | C[C@H](NC(=O)c1cc(C(F)(F)F)cc(C(F)(F)F)c1)c1ncnn1-c1ncc(C(=O)N2CCCC2)cn1 [Example I-147] |  |  |  |  |  |  | 100 |  | 100 |  | 100 |  | 90 | 
5 | C[C@@H]1CN(C(=O)c2cnc(-n3ncnc3[C@H](C)NC(=O)c3cc(OC(F)(F)F)cc(S(C)(=O)=O)c3)nc2)C[C@H](C)O1 [Example I-145] |  |  |  |  |  |  | 100 |  |  |  |  |  | 100 | 
6 | C[C@H](NC(=O)c1cc(C(F)(F)F)cc(C(F)(F)F)c1)c1ncnn1-c1ccc(C(=O)N2CC(=O)NC(=O)C2)cn1 [Example I-80] |  |  |  |  |  |  |  |  |  |  |  |  | 90 | 100
7 | COC1CN(C(=O)c2ccc(-n3nc(C)nc3[C@H](C)NC(=O)c3cc(Cl)cc(C(F)(F)F)c3)nc2)C1 [Example I-24] | 100 | 100 | 100 | 90 | 80 | 100 |  |  | 100 | 100 | 100 | 80 to 100 |  | 
